Measured values reported in patent publication US5212202A, “Therapeutic cholesterol gallstone dissolution method” (priority 1992, dated 1993).
Where two headings read alike, the source gives them in different places.

Legend:
[1] = cited from earlier work
[2] = in vitro dissolution of matched cholesterol gallstones from cholecystectomy patients, 30 ml polyethylene bag model gallbladder, 180 ml/min (Table II); set-up: species or system human; conditions: five stones per set; for Mean Time (complete dissolution): mean stone weight 79-340 mg, 150 ml solvent
[3] = in vitro dissolution of fresh human cholesterol gallstones in a model gallbladder at high flow rate (Table I); conditions: for Dissolution Rate / Dissolution Time: high flow rate; for Dissolution Rate: stone taken as 90% by weight cholesterol; for dissolution of cholesterol gallstones compared with MTBE: in words; for Dissolution Time: total dissolution, one stone of 132-175 mg per solvent
Procedure: Their efficacy and the techniques of the present invention may be seen from the following data. In the tests described in Table I below, fresh human faceted cholesterol gallstones (kept in distilled water) were dissolved in vitro and the times were recorded for the total dissolution, using a model gallbladder at a high flow rate achieved by a metering pump. "High flow rate" as used herein will mean rates of flow in the range which can be anticipated to result in fluid turbulence for the solvent in the region of the biliary tract surrounding the calculi (gallstones). While "high" rates will vary according to solvent type and viscosity and with individual patients, it will be expected that appropriate flow rates will be at least about 20 ml/min, preferably at least about 100 ml/min, and more preferably at least about 150 ml/min. For comparison purposes a parallel test with MTBE is also shown.

[4] = in words; cited from earlier work
[5] = in words; cited from earlier work; remark: listed apart in the source
[6] = cited from earlier work; remark: listed apart in the source
[7] = perfusion of the gallbladder of an anesthetized pig, solvent level in central venous blood by gas chromatography
[8] = treatment of a human patient with gallstones by solvent perfusion; type: in vivo
Excerpt: Another aspect of the invention is the in vivo dissolution of gallstones using the C5 -C6 ester solvents provided herein as the solvent in a high flow rate pumping system, in particular a continuous pumping system controlled by gallbladder pressure feedback and employing a delivery system consisting of a catheter, a continuous flow pumping system, a controller and a tubing set; see aforesaid U.S. patent application No. 07/482,194, filed Feb. 20, 1990, to S. Zakko, incorporated herein by reference.
Such a pumping system, in combination with the low viscosity solvent provided herein, has the capability of emptying the gallbladder many times faster than the rate of normal gallbladder contraction, to prevent solvent from emptying into the intestine should such a gallbladder contraction occur during perfusion. […]
Further, should the pressure remain above (as may occur with the beginning of a gallbladder contraction) or below the upper and lower pressure limits in excess of empirically determined delays, or above or below the upper and lower pressure alarms, for the associated delays, the controller causes the system to enter into an alarm mode in which both pumps operate in the aspiration direction at maximum flow rate to remove the low viscosity solvent.

Compound | Overall Rate (dissolution) [2] [mg/min] | Mean Time (complete dissolution) [2] [min] | Boiling Point ([1]; Table I) [°C] | Dissolution Rate [3] [mg/min] | dissolution of cholesterol gallstones compared with MTBE [3] | Dissolution Time [3] [min] | other results
CCOCC [diethyl ether, reference compound] | – | – | – | – | – | – | Boiling point relative to body temperature ([1]; in words): below body temperature
CC(=O)OC(C)C [isopropyl acetate] | 5.48 | 26 | 89 | 9 | rate generally comparable to that of MTBE | 14 | –
CCCOC(C)=O [n-propyl acetate] | 4.45 | 35 | 102 | 14 | rate generally comparable to that of MTBE | 10 | –
CCCCCCCC(=O)OCC(O)CO (stereo not shown) [Monooctanoin, monooctanoin] | – | – | – | – | – | – | viscosity [4]: relatively high viscosity; gallstone dissolution speed [5]: dissolves gallstones very slowly
COC(C)(C)C [methyl t-butyl ether] | 7.69 | 19 | 55 | 20 | – | 8 | side effects in patients ([6]; believed caused by increased blood levels of MTBE): nausea and vomiting; systemic toxicity, pain and intestinal damage on escape into the small intestine ([6]; escape from gallbladder into small intestine): signs of systemic toxicity (sedation), pain and by endoscopy, damage to the epithelium of the small intestine; effect of entry into the blood stream ([6]; in vivo): hemolysis; renal failure ([6]; reversible): one; Boiling Point [1]: 55 °C; blood level of solvent during perfusion ([7]; 10 ml, 2 h gallbladder perfusion, central vein): 0.01-0.1 μl/ml; concentration ([7]; read-out: blood level of solvent during perfusion, 10 ml, 2 h gallbladder perfusion, central vein): 84 to 840 µM; blood level of solvent after perfusion ([7]; thirty and sixty minutes following perfusion): declined after perfusion
CCOC(=O)C(C)C [ethyl isobutyrate] | 4.55 | 33 | 112 | 8 | rate generally comparable to that of MTBE | 15 | –
CCOC(=O)CC [ethyl propionate] | 12.22 | 14 | 99 | 13 | rate generally comparable to that of MTBE | 10 | cholesterol concentration in the solvent during the procedure, versus previous procedures using MTBE ([8]; human patient): higher than concentrations observed during previous procedures conducted using MTBE; treatment of a human patient to eliminate cholesterol gallstones ([8]; one human patient): successful treatment; blood level of solvent throughout the procedure ([7]; before, 1 h and 2 h of perfusion, 30 and 60 min after): below the level of detectability
